# Measurements: patent publication US20110207655A1, “CYCLIC DEPSIPEPTIDE COMPOUND AND USE THEREOF” (Astellas Pharma Inc., priority 2008, published 2011)
# Starred links: 1 amine or outer side, 2 acyl side, 3 side chain; linkers in the order of their positions; H or OH if unused. Positions of bridges follow the written chain, without caps; N, C: chain ends. Non-standard residues stand in square brackets, D forms with d. Residues, ends and D or L forms follow the SMILES beside them. Leu(3R-O(AcLeu(3R-OH))) = CC(=O)N[C@H](C(=O)O[C@H](C(C)C)[C@H](N)C(=O)O)[C@H](O)C(C)C; X1 = CO[C@H](C)C(C(=O)[*:2])N(C)[*:1]; dPhLac = O=C(O)[C@H](O)Cc1ccccc1; NMeA = CN[C@@H](C)C(=O)O; NMeDha = C=C(NC)C(=O)O
# How the values were obtained:
# [1] = test system: ADP receptors (P2Y1, P2Y2); details: in-vitro tests, Non-Patent Citation 3; cited from earlier work
# blood pressure = details: intravenous 30 μg/kg, Non-Patent Citation 4; cited from earlier work
# Gq/11 = assay: Inhibitory action on Gq/11: LTD4-induced cellular Ca2+ change in CHO cells stably expressing CysLTR2 (FLIPR); type: cell-based; details: read-out: Gq/11 inhibitory activities (IC50 values), 10 nM LTD4, maximum Fluo-4 fluorescence intensity
# Experimental: The test was carried out according to the method of Non-Patent Citation 3, using a leukotriene receptor CysLTR2 (cysteinyl leukotriene receptor 2), which is known to activate Gq/11. CHO cells stably expressing CysLTR2 were seeded on a 96-well black/clear bottom plate (manufactured by Becton, Dickinson and Company) at 20,000 cells per well, and after 24 hours of seeding, the medium was discarded. Then, Hanks BSS (GIBCO Inc.) including 2 μM Fluo-4, AM (manufactured by Molecular Probe Co.), 0.004% pluronic acid, 1% FBS, 20 mM HEPES, and 2.5 mM probenecid was added thereto at 100 μL per well, followed by incubation at 37° C. for 1 hour. After incubation, the resultant was washed four times with Hanks BSS including 20 mM HEPES, and Hanks BSS including 20 mm HEPES per well was added thereto 100 μL per well. In addition, 50 μL of a test compound that had been diluted with Hanks BSS including 20 mM HEPES to a final concentration from 1×10^−10 M to 1×10^−5 M was added thereto, followed by being left to stand at room temperature for 30 minutes. The change of cellular Ca^2+ concentration after addition of leukotriene D4 (LTD4, manufactured by Cayman Co.), which is a CysLTR2 ligand, was measured over time using an FLIPR (Molecular Device Corp.). 50 μL it of leukotriene D4 that had been diluted with Hanks BSS including 20 mM HEPES to a final concentration of 10 nM at 10 seconds after the initiation of measurement was added thereto, fluorescence intensities were measured every second for 50 seconds and every sixth second for 2 minutes, and a maximum fluorescence intensity during a measurement time of 3 minutes was observed. By plotting the concentrations and the fluorescence intensities of the test compounds, the IC50 values were calculated, which were taken as Gq/11 inhibitory activities.
# [2] = test system: human platelet aggregation caused by ADP; details: Patent Citation 1, Non-Patent Citation 1; cited from earlier work
# Gq and G11 = details: Non-Patent Citation 3; cited from earlier work
# [3] = test system: muscarinic receptors (M1); details: in-vitro tests, Non-Patent Citation 3; cited from earlier work
# carotid artery pressure = assay: Action on the carotid pressure by intratracheal administration; type: in vivo, SD male rats; details: rats
# Experimental: SD male rats (Charles River Laboratories Japan, Inc.) were used in experiments. Urethane (1.2 g/kg) was administered intraperitoneally to the rats for anesthesia. Cannulation for […] was carried out in the carotid artery and a pressure transducer (TP-400T, Nihon Kohden Corporation) was connected. The cannula for measuring blood pressure and a pressure transducer were filled with 5% heparin physiological saline. The pressure signal was amplified with a strain pressure amplifier (AP-601G, Nihon Kohden Corporation) and recorded on chart paper by a thermal pen recorder (WT-685G, Nihon Kohden Corporation). The body temperature of the rats was maintained at 37° C. using a body temperature-maintaining device (BWT-100, Bio Research Center). The trachea was exposed, and using needles (27 G), the test compounds (30 or 100 μg/kg) at a volume of 0.5 mL/kg or physiological saline was administered by direct intratracheal injection. For the group administered with 30 μg/kg, 5 animals were used, for the group administered with 100 μg/kg, 1 animal was used, and for the group administered with physiological saline, 3 animals were used. For 30 minutes after intratracheal administration, a mean blood pressure was measured.
# [4] = test system: LTD4-induced airway contraction; assay: Action on the LTD4-induced airway contraction response by intratracheal administration; type: in vivo, Hartley male guinea pigs; details: guinea pigs
# Experimental: Hartley male guinea pigs (Japan SLC, Inc.) were used in experiments. Urethane (1.2 g/kg) was administered intraperitoneally to the guinea pigs for anesthesia. Using needles (30 G), the test compounds (0.3, 1, and 3 μg/kg) at a volume of 0.5 mL/kg or physiological saline was administered by intratracheal injection (3 animals in each group). Cannulation for intravenous administration was carried out in the external jugular vein of the guinea pigs. A tracheostomy cannula was inserted through an incision in the trachea and mechanical ventilation (10 mL/kg, 60 times/min) was carried out using a mechanical ventilator (MODEL683, HARVARD). The mechanical ventilator circuit was connected with a pressure transducer (TP-400T, Nihon Kohden Corporation) and the change in airway pressure was measured. The airway pressure signal was amplified with a strain pressure amplifier (AP-601G, Nihon Kohden Corporation) and recorded on chart paper by a thermal pen recorder (LINEARCORDER F WR3701, Graphtec). The body temperature of the guinea pigs was maintained at 37° C. using a body temperature-maintaining device (BWT-100, Bio Research Center). At 30 minutes after injection by intratracheal administration of the test compound, a solution of LTD4 in physiological saline (0.3 μg/kg) was administered intravenously to induce the airway contraction response.
# [5] = intratracheal 100 μg/kg, 1 animal
compound,measurement,setting,value
C=C1C(=O)N[C@@H](C)C(=O)N(C)[C@@H](C)C(=O)N[C@@H]([C@H](OC(=O)[C@@H](NC(C)=O)[C@H](O)C(C)C)C(C)C)C(=O)N(C)C([C@@H](C)OC)C(=O)O[C@H](C)[C@H](NC(C)=O)C(=O)O[C@H](Cc2ccccc2)C(=O)N1C (stereo partly drawn) [Ref 1] (Ac-T[dPhLac][NMeDha]A[NMeA][Leu(3R-O(AcLeu(3R-OH)))][X1]; ester 1-C),"reactions of ADP receptors (P2Y1, P2Y2)",[1],inhibits
same,hypotensive action,blood pressure,hypotensive action
same,IC50,Gq/11,66 nM
same,human platelet aggregation caused by ADP,[2],inhibits
same,inhibition of Gq and G11,Gq and G11,strongly inhibits
same,reactions of muscarinic receptors (M1),[3],inhibits
same,amount having no action on the carotid artery pressure,carotid artery pressure; intratracheal,at least 30 μg/kg
same,Reduction in blood pressure After 10 min,carotid artery pressure; intratracheal 30 μg/kg,7±5.2 mmHg
same,Reduction in blood pressure Max in 30 min,carotid artery pressure; intratracheal 30 μg/kg,22±3.3 mmHg
same,reduction in blood pressure compared with physiological saline group,carotid artery pressure; intratracheal 30 μg/kg,no significant difference
same,reduction in blood pressure (in words),carotid artery pressure; intratracheal 100 μg/kg,remarkable reduction in blood pressure
same,Reduction in blood pressure After 10 min,carotid artery pressure; [5],65 mmHg
same,Reduction in blood pressure Max in 30 min,carotid artery pressure; [5],95 mmHg
same,gap between maximum amount having no action on carotid artery pressure and ED50 of inhibitory action on airway contraction,"carotid artery pressure; intratracheal, 30 μg/kg vs 0.73 μg/kg",at least 40 times
same,ED50,"[4]; Cavia porcellus, iv, intratracheal, 30 minutes before LTD4 0.3 μg/kg i.v., read-out: ED50 value of inhibition of LTD4-induced airway contraction",1.1 µg/kg
same,LTD4-induced airway contraction response,[4]; intratracheal administration,inhibited
